This experiment has as its target Proto-oncogene tyrosine-protein kinase Src (Homo sapiens, UniProt P12931). Briefly: Homogeneous Time-resolved Fluorescence (HTRF) Assay. The following applies: pH 7.5; 37 °C. The protocol: Kinase assays were performed using the europium/APC detection format (LANCE, Perkin Elmer). HTRF is based on the proximity of europium cryptate (donor fluorophore)-labeled antiphosphotyrosine and streptavidin labeled with APC(allophycocyanin), which have been brought together by a binding reaction. When the two entities come into close proximity and upon excitation, energy transfer occurs and APC re-emits at 665 nm.

Where only a bound is given, the exact number is not on record here.

Proto-oncogene tyrosine-protein kinase Src, sequence (P12931 2-536 limits assumed): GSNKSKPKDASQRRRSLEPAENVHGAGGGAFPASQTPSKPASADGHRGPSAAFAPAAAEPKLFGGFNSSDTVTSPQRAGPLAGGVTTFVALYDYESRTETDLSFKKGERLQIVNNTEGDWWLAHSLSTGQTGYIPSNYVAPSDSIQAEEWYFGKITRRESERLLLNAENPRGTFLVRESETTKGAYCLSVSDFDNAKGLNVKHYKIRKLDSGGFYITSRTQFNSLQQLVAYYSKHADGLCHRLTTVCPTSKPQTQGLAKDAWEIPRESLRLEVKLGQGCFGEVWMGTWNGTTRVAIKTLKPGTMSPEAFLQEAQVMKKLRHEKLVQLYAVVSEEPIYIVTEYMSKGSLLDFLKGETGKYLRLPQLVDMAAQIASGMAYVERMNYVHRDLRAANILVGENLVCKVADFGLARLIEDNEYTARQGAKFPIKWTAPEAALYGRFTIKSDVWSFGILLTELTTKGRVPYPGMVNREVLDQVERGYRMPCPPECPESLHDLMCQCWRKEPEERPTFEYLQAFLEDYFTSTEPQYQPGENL

Usually IC50 stands for the point on the concentration scale where inhibition reaches its midpoint. Lower therefore signals inhibition by little substance. For the compound `COc1cc(Nc2c(C#N)cnc3cc(-c4ccccc4CN4CCN(C)CC4)sc23)c(Cl)cc1Cl` [7-[(2,4-dichloro-5-methoxyphenyl)amino]-2-{2-[(4-methylpiperazin-1-yl)methyl]phenyl}thieno[3,2-b]pyridine-6-carbonitrile], the half-inhibitory concentration (IC50) is above 10 µM.

Values taken from BindingDB's records for doi:10.1021/jm049237m (Wyeth Research, 2004).
